The molecules below were run on SK-BR-3 (assay: drug sensitivity score (DSS), CellTiter-Glo (DSS (AUC-based score)); higher = stronger drug effect (viability inhibition or cytotoxicity); extreme values may be limits of the assay). Settings: incubation time: 72 h.
Outline: (§1)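 Normalisation on every plate relied on 0.1 % DMSO and a positive kill control. The plates, 384-well format, held compound at 5 concentrations 10-fold apart across a compound-specific 10,000-fold range, and breast cancer cell lines in 20 µl suspension were incubated on them for 72 h before CellTox Green and then CellTiter-Glo readings. The drug sensitivity score derives from the area under the fitted dose-response curve.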

SMILES | drug sensitivity score
Cc1cccc(-c2nn3c(c2-c2ccnc4ccc(C(N)=O)cc24)CCC3)n1 [Galunisertib] | 0
Nc1cccc2c1CN(C1CCC(=O)NC1=O)C2=O (configuration not stated) [Lenalidomide] | 0
C[C@]12O[C@H](C[C@]1(O)CO)n1c3ccccc3c3c4c(c5c6ccccc6n2c5c31)CNC4=O [Lestaurtinib] | 8.99
O=C1c2c(O)ccc(O)c2C(=O)c2c(NCCNCCO)ccc(NCCNCCO)c21 [Mitoxantrone] | 0
Nc1ccccc1NC(=O)c1ccc(CNc2nccc(-c3cccnc3)n2)cc1 [Mocetinostat] | 8.95
COc1nc(N)nc2c1ncn2[C@@H]1O[C@H](CO)[C@@H](O)[C@@H]1O [Nelarabine] | 0
Cc1ccc(Nc2nccc(N(C)c3ccc4c(C)n(C)nc4c3)n2)cc1S(N)(=O)=O [Pazopanib] | 0
CS(=O)(=O)N1CCN(Cc2cc3nc(-c4cccc5[nH]ncc45)nc(N4CCOCC4)c3s2)CC1 [Pictilisib] | 14.2
O=C(NC[C@H](O)CO)c1ccncc1Nc1ccc(I)cc1F [Pimasertib] | 2.74
O=C(CCBr)N1CCN(C(=O)CCBr)CC1 [Pipobroman] | 0
c1cc(CN2CCCNCCNCCCNCC2)ccc1CN1CCCNCCNCCCNCC1 [Plerixafor] | 0
Cn1cc(CNCC2CCN(c3ncc(C(=O)NO)cn3)CC2)c2ccccc21 [Quisinostat] | 19.3
CC(C)N(CCCNC(=O)Nc1ccc(C(C)(C)C)cc1)C[C@H]1O[C@@H](n2cc(Br)c3c(N)ncnc32)[C@H](O)[C@@H]1O [SGC0946] | 0

The molecules below were run on HCC1143 in the same assay as above. Settings: incubation time: 72 h.
Outline: as §1

SMILES | drug sensitivity score
Cc1cccc(-c2nn3c(c2-c2ccnc4ccc(C(N)=O)cc24)CCC3)n1 [Galunisertib] | 0
Nc1cccc2c1CN(C1CCC(=O)NC1=O)C2=O (configuration not stated) [Lenalidomide] | 0
C[C@]12O[C@H](C[C@]1(O)CO)n1c3ccccc3c3c4c(c5c6ccccc6n2c5c31)CNC4=O [Lestaurtinib] | 2.04
O=C1c2c(O)ccc(O)c2C(=O)c2c(NCCNCCO)ccc(NCCNCCO)c21 [Mitoxantrone] | 0.675
Nc1ccccc1NC(=O)c1ccc(CNc2nccc(-c3cccnc3)n2)cc1 [Mocetinostat] | 5.67
COc1nc(N)nc2c1ncn2[C@@H]1O[C@H](CO)[C@@H](O)[C@@H]1O [Nelarabine] | 0
Cc1ccc(Nc2nccc(N(C)c3ccc4c(C)n(C)nc4c3)n2)cc1S(N)(=O)=O [Pazopanib] | 0
CS(=O)(=O)N1CCN(Cc2cc3nc(-c4cccc5[nH]ncc45)nc(N4CCOCC4)c3s2)CC1 [Pictilisib] | 7.14
O=C(NC[C@H](O)CO)c1ccncc1Nc1ccc(I)cc1F [Pimasertib] | 0
O=C(CCBr)N1CCN(C(=O)CCBr)CC1 [Pipobroman] | 0
c1cc(CN2CCCNCCNCCCNCC2)ccc1CN1CCCNCCNCCCNCC1 [Plerixafor] | 0
Cn1cc(CNCC2CCN(c3ncc(C(=O)NO)cn3)CC2)c2ccccc21 [Quisinostat] | 16.7
CC(C)N(CCCNC(=O)Nc1ccc(C(C)(C)C)cc1)C[C@H]1O[C@@H](n2cc(Br)c3c(N)ncnc32)[C@H](O)[C@@H]1O [SGC0946] | 0

What follows are molecules tested on BT-474 in the same assay as above. Settings: incubation time: 72 h.
Outline: as §1

SMILES | drug sensitivity score
Cc1cccc(-c2nn3c(c2-c2ccnc4ccc(C(N)=O)cc24)CCC3)n1 [Galunisertib] | 0
Nc1cccc2c1CN(C1CCC(=O)NC1=O)C2=O (configuration not stated) [Lenalidomide] | 0
C[C@]12O[C@H](C[C@]1(O)CO)n1c3ccccc3c3c4c(c5c6ccccc6n2c5c31)CNC4=O [Lestaurtinib] | 3.87
O=C1c2c(O)ccc(O)c2C(=O)c2c(NCCNCCO)ccc(NCCNCCO)c21 [Mitoxantrone] | 0
Nc1ccccc1NC(=O)c1ccc(CNc2nccc(-c3cccnc3)n2)cc1 [Mocetinostat] | 6.06
COc1nc(N)nc2c1ncn2[C@@H]1O[C@H](CO)[C@@H](O)[C@@H]1O [Nelarabine] | 1.66
Cc1ccc(Nc2nccc(N(C)c3ccc4c(C)n(C)nc4c3)n2)cc1S(N)(=O)=O [Pazopanib] | 0
CS(=O)(=O)N1CCN(Cc2cc3nc(-c4cccc5[nH]ncc45)nc(N4CCOCC4)c3s2)CC1 [Pictilisib] | 6.27
O=C(NC[C@H](O)CO)c1ccncc1Nc1ccc(I)cc1F [Pimasertib] | 7.07
O=C(CCBr)N1CCN(C(=O)CCBr)CC1 [Pipobroman] | 0
c1cc(CN2CCCNCCNCCCNCC2)ccc1CN1CCCNCCNCCCNCC1 [Plerixafor] | 0
Cn1cc(CNCC2CCN(c3ncc(C(=O)NO)cn3)CC2)c2ccccc21 [Quisinostat] | 13.7
CC(C)N(CCCNC(=O)Nc1ccc(C(C)(C)C)cc1)C[C@H]1O[C@@H](n2cc(Br)c3c(N)ncnc32)[C@H](O)[C@@H]1O [SGC0946] | 0

Each molecule was assayed on BT-549 in the same assay as above. Settings: incubation time: 72 h.
Outline: as §1

SMILES | drug sensitivity score
Cc1cccc(-c2nn3c(c2-c2ccnc4ccc(C(N)=O)cc24)CCC3)n1 [Galunisertib] | 0
Nc1cccc2c1CN(C1CCC(=O)NC1=O)C2=O (configuration not stated) [Lenalidomide] | 0
C[C@]12O[C@H](C[C@]1(O)CO)n1c3ccccc3c3c4c(c5c6ccccc6n2c5c31)CNC4=O [Lestaurtinib] | 7.26
O=C1c2c(O)ccc(O)c2C(=O)c2c(NCCNCCO)ccc(NCCNCCO)c21 [Mitoxantrone] | 0
Nc1ccccc1NC(=O)c1ccc(CNc2nccc(-c3cccnc3)n2)cc1 [Mocetinostat] | 8.43
COc1nc(N)nc2c1ncn2[C@@H]1O[C@H](CO)[C@@H](O)[C@@H]1O [Nelarabine] | 0
Cc1ccc(Nc2nccc(N(C)c3ccc4c(C)n(C)nc4c3)n2)cc1S(N)(=O)=O [Pazopanib] | 2.29
CS(=O)(=O)N1CCN(Cc2cc3nc(-c4cccc5[nH]ncc45)nc(N4CCOCC4)c3s2)CC1 [Pictilisib] | 9.15
O=C(NC[C@H](O)CO)c1ccncc1Nc1ccc(I)cc1F [Pimasertib] | 0.686
O=C(CCBr)N1CCN(C(=O)CCBr)CC1 [Pipobroman] | 0
c1cc(CN2CCCNCCNCCCNCC2)ccc1CN1CCCNCCNCCCNCC1 [Plerixafor] | 0
Cn1cc(CNCC2CCN(c3ncc(C(=O)NO)cn3)CC2)c2ccccc21 [Quisinostat] | 11.9
CC(C)N(CCCNC(=O)Nc1ccc(C(C)(C)C)cc1)C[C@H]1O[C@@H](n2cc(Br)c3c(N)ncnc32)[C@H](O)[C@@H]1O [SGC0946] | 0

These molecules were tested on MFM-223 in the same assay as above. Settings: incubation time: 72 h.
Outline: as §1

SMILES | drug sensitivity score
Cc1cccc(-c2nn3c(c2-c2ccnc4ccc(C(N)=O)cc24)CCC3)n1 [Galunisertib] | 0
Nc1cccc2c1CN(C1CCC(=O)NC1=O)C2=O (configuration not stated) [Lenalidomide] | 0
C[C@]12O[C@H](C[C@]1(O)CO)n1c3ccccc3c3c4c(c5c6ccccc6n2c5c31)CNC4=O [Lestaurtinib] | 4.3
O=C1c2c(O)ccc(O)c2C(=O)c2c(NCCNCCO)ccc(NCCNCCO)c21 [Mitoxantrone] | 0
Nc1ccccc1NC(=O)c1ccc(CNc2nccc(-c3cccnc3)n2)cc1 [Mocetinostat] | 5.07
COc1nc(N)nc2c1ncn2[C@@H]1O[C@H](CO)[C@@H](O)[C@@H]1O [Nelarabine] | 0
Cc1ccc(Nc2nccc(N(C)c3ccc4c(C)n(C)nc4c3)n2)cc1S(N)(=O)=O [Pazopanib] | 6.2
CS(=O)(=O)N1CCN(Cc2cc3nc(-c4cccc5[nH]ncc45)nc(N4CCOCC4)c3s2)CC1 [Pictilisib] | 7.5
O=C(NC[C@H](O)CO)c1ccncc1Nc1ccc(I)cc1F [Pimasertib] | 1.68
O=C(CCBr)N1CCN(C(=O)CCBr)CC1 [Pipobroman] | 0
c1cc(CN2CCCNCCNCCCNCC2)ccc1CN1CCCNCCNCCCNCC1 [Plerixafor] | 0
Cn1cc(CNCC2CCN(c3ncc(C(=O)NO)cn3)CC2)c2ccccc21 [Quisinostat] | 9.28
CC(C)N(CCCNC(=O)Nc1ccc(C(C)(C)C)cc1)C[C@H]1O[C@@H](n2cc(Br)c3c(N)ncnc32)[C@H](O)[C@@H]1O [SGC0946] | 0

Each molecule was assayed on MDA-MB-468 in the same assay as above. Settings: incubation time: 72 h.
Outline: as §1

SMILES | drug sensitivity score
Cc1cccc(-c2nn3c(c2-c2ccnc4ccc(C(N)=O)cc24)CCC3)n1 [Galunisertib] | 0
Nc1cccc2c1CN(C1CCC(=O)NC1=O)C2=O (configuration not stated) [Lenalidomide] | 0
C[C@]12O[C@H](C[C@]1(O)CO)n1c3ccccc3c3c4c(c5c6ccccc6n2c5c31)CNC4=O [Lestaurtinib] | 11.8
O=C1c2c(O)ccc(O)c2C(=O)c2c(NCCNCCO)ccc(NCCNCCO)c21 [Mitoxantrone] | 0
Nc1ccccc1NC(=O)c1ccc(CNc2nccc(-c3cccnc3)n2)cc1 [Mocetinostat] | 8.18
COc1nc(N)nc2c1ncn2[C@@H]1O[C@H](CO)[C@@H](O)[C@@H]1O [Nelarabine] | 0
Cc1ccc(Nc2nccc(N(C)c3ccc4c(C)n(C)nc4c3)n2)cc1S(N)(=O)=O [Pazopanib] | 0
CS(=O)(=O)N1CCN(Cc2cc3nc(-c4cccc5[nH]ncc45)nc(N4CCOCC4)c3s2)CC1 [Pictilisib] | 6.39
O=C(NC[C@H](O)CO)c1ccncc1Nc1ccc(I)cc1F [Pimasertib] | 0
O=C(CCBr)N1CCN(C(=O)CCBr)CC1 [Pipobroman] | 0
c1cc(CN2CCCNCCNCCCNCC2)ccc1CN1CCCNCCNCCCNCC1 [Plerixafor] | 0
Cn1cc(CNCC2CCN(c3ncc(C(=O)NO)cn3)CC2)c2ccccc21 [Quisinostat] | 13.6
CC(C)N(CCCNC(=O)Nc1ccc(C(C)(C)C)cc1)C[C@H]1O[C@@H](n2cc(Br)c3c(N)ncnc32)[C@H](O)[C@@H]1O [SGC0946] | 2.46

These molecules were tested on MDA-MB-453 in the same assay as above. Settings: incubation time: 72 h.
Outline: as §1

SMILES | drug sensitivity score
Cc1cccc(-c2nn3c(c2-c2ccnc4ccc(C(N)=O)cc24)CCC3)n1 [Galunisertib] | 0
Nc1cccc2c1CN(C1CCC(=O)NC1=O)C2=O (configuration not stated) [Lenalidomide] | 0
C[C@]12O[C@H](C[C@]1(O)CO)n1c3ccccc3c3c4c(c5c6ccccc6n2c5c31)CNC4=O [Lestaurtinib] | 5.26
O=C1c2c(O)ccc(O)c2C(=O)c2c(NCCNCCO)ccc(NCCNCCO)c21 [Mitoxantrone] | 0
Nc1ccccc1NC(=O)c1ccc(CNc2nccc(-c3cccnc3)n2)cc1 [Mocetinostat] | 9.7
COc1nc(N)nc2c1ncn2[C@@H]1O[C@H](CO)[C@@H](O)[C@@H]1O [Nelarabine] | 0
Cc1ccc(Nc2nccc(N(C)c3ccc4c(C)n(C)nc4c3)n2)cc1S(N)(=O)=O [Pazopanib] | 0
CS(=O)(=O)N1CCN(Cc2cc3nc(-c4cccc5[nH]ncc45)nc(N4CCOCC4)c3s2)CC1 [Pictilisib] | 13.1
O=C(NC[C@H](O)CO)c1ccncc1Nc1ccc(I)cc1F [Pimasertib] | 0
